In brackets after ≈: the same amount, converted by molar mass. Structures can show the parent of a compound that is named as a salt. Blank lines part the entries; values can stand above or below the compound they belong to.
How the values were obtained:
[1] = test system: Mycobacterium smegmatis (ATCC607); test: In-vitro anti-bacterial activity against strain M. Smegmatis ATCC607; assay type: cell-based; details: 90% inhibitory concentration for bacterial growth, Alamar Blue fluorescence; for IC90: Mycolicibacterium smegmatis, ATCC607, 48 h, read-out: IC90 MSM 607; for IC90 MSM 607: 48 hours
Outline: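 Serial five-fold compound dilutions in BSA-supplemented wells, inoculated with ~250 CFU/well in Mueller-Hinton broth, incubated 48 h at 37 °C, 5% CO2. Growth read by Alamar Blue fluorescence (ex 530/em 590 nm); IC90 in μg/ml.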

[2] = test system: Staphylococcus aureus (ATCC29213); test: In-vitro anti-bacterial activity, microtitre plate assay, IC90 determination (non-mycobacterial strains); assay type: cell-based; details: 90% inhibitory concentration for bacterial growth, resazurin fluorescence; for IC90: Staphylococcus aureus, ATCC29213, 24 h, read-out: IC90 STA B29213; for IC90 STA B29213: 24 hours
Outline: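 Inoculum of about 100 TCID50 (10–60 CFU/well) in Mueller-Hinton broth, serial five-fold compound dilutions, 24 h at 37 °C in air. Growth read by resazurin fluorescence (ex 530/em 590 nm); IC90 in μg/ml as 90% growth inhibition.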

melting point: 209 °C
SMILES: COc1nc2ccc(F)cc2cc1C(c1ccc(Cl)cc1)C1(O)CCNC(Cc2ccccc2)C1 (stereo not drawn) (as salt: fumarate) [Compound 54]

melting point: 120 °C
SMILES: COc1nc2ccc(F)cc2cc1C(c1ccc(Cl)cc1)C1(O)CCNC(Cc2ccccc2)C1 (stereo not drawn) (as salt: fumarate) [Compound 55]

melting point: 155 °C
SMILES: COc1nc2ccc(Br)cc2cc1C(c1ccc(Cl)cc1)C1(O)CCNC(Cc2ccccc2)C1 (stereo not drawn) (as salt: fumarate) [Compound 77]

melting point: 140 °C
SMILES: COc1nc2ccc(SC)cc2cc1C(c1ccc(Cl)cc1)C1(O)CCNC(Cc2ccccc2)C1 (stereo not drawn) (as salt: fumarate) [Compound 90]

melting point: > 250 °C
SMILES: COc1nc2ccc(SC)cc2cc1C(c1ccc(Cl)cc1)C1(O)CCNC(Cc2ccccc2)C1 (stereo not drawn) (as salt: fumarate) [Compound 93]

melting point: 168 °C
SMILES: COc1nc2ccc(Cl)cc2cc1C(c1ccc(Cl)cc1)C1(O)CCNC(Cc2ccccc2)C1 (stereo not drawn) (as salt: fumarate) [Compound 94]

IC90 [1]: 2.18 µg/mL (≈ 3.98 µM)
IC90 [2]: 3.45 µg/mL (≈ 6.31 µM)
SMILES: COc1nc2ccc(SC(C)C)cc2cc1C(c1ccc(Cl)cc1)C1(O)CCNC(Cc2ccccc2)C1 (stereo not drawn) [Compound 382]

IC90 MSM 607 [1]: 2.74 µg/mL (≈ 5.01 µM)
IC90 STA B29213 [2]: 3.45 µg/mL (≈ 6.31 µM)
SMILES: COc1nc2ccc(SC(C)C)cc2cc1C(c1ccc(Cl)cc1)C1(O)CCNC(Cc2ccccc2)C1 (stereo not drawn) [Compound 383]

IC90 MSM 607 [1]: 2.18 µg/mL (≈ 3.98 µM)
IC90 STA B29213 [2]: 3.45 µg/mL (≈ 6.31 µM)
SMILES: COc1nc2ccc(SC(C)C)cc2cc1C(c1ccc(Cl)cc1)C1(O)CCNC(Cc2ccccc2)C1 (stereo not drawn) [Compound 384]

IC90 MSM 607 [1]: 1.37 µg/mL (≈ 2.5 µM)
IC90 STA B29213 [2]: 1.73 µg/mL (≈ 3.16 µM)
SMILES: COc1nc2ccc(SC(C)C)cc2cc1C(c1ccc(Cl)cc1)C1(O)CCNC(Cc2ccccc2)C1 (stereo not drawn) [Compound 385]

Second part, the compound before the results:

SMILES: COc1nc2ccc(Br)cc2cc1C(c1cccc(Cl)c1)C1(O)CCNC(Cc2ccccc2)C1 (stereo not drawn) (as salt: fumarate) [Compound 35]
melting point: 145 °C

SMILES: CCCN(C)CC1CC(O)(C(c2ccc(Cl)cc2)c2cc3cc(Cl)ccc3nc2OC)CCN1 (stereo not drawn) (as salt: fumarate) [Compound 64]
melting point: 141 °C

SMILES: COc1nc2ccc(Br)cc2cc1C(c1ccc(Cl)cc1)C1(O)CCN(Cc2ccccc2)C(Cc2ccccc2)C1 (stereo not drawn) (as salt: fumarate) [Compound 76]
melting point: 148 °C

SMILES: CSc1nc2ccc(Br)cc2cc1C(c1ccc(Cl)cc1)C1(O)CCNC(Cc2ccccc2)C1 (stereo not drawn) (as salt: fumarate) [Compound 88]
melting point: 194 °C

SMILES: COc1nc2ccc(Br)cc2cc1C(c1ccc(Cl)cc1)C1(O)CCNC(Cc2ccc(F)c(F)c2)C1 (stereo not drawn) (as salt: fumarate) [Compound 113]
melting point: 130 °C

SMILES: CS(=O)(=O)c1ccc2[nH]c(=O)c(C(c3ccc(Cl)cc3)C3(O)CCNC(Cc4ccccc4)C3)cc2c1 (stereo not drawn) (as salt: fumarate) [Compound 119]
melting point: 215 °C

SMILES: COc1nc2ccccc2cc1C(c1ccc(Cl)cc1)C1(O)CCNC(Cc2ccc(F)c(F)c2)C1 (stereo not drawn) (as salt: fumarate) [Compound 139]
melting point: 130 °C

SMILES: COc1nc2ccc(SC)cc2cc1C(c1ccccc1)C1(O)CCNC(Cc2ccccc2)C1 (stereo not drawn) (as salt: fumarate) [Compound 141]
melting point: 155 °C

SMILES: COc1nc2ccc(Br)cc2cc1C(c1cccc(Cl)c1)C1(O)CCNC(c2ccc(F)cc2C)C1 (stereo not drawn) (as salt: fumarate) [Compound 149]
melting point: 178 °C

SMILES: C=CCC1CNCCC1(O)C(c1cccc(Cl)c1)c1cc2cc(Cl)ccc2nc1OC (stereo not drawn) [Compound 394]
IC90 [1]: 2.29 µg/mL (≈ 5.01 µM)
IC90 [2]: 2.89 µg/mL (≈ 6.32 µM)

SMILES: COc1nc2ccc(SC)cc2cc1C(c1ccc(Cl)cc1)C1(O)CCNCC1(C)C (stereo not drawn) [Compound 396]
IC90 [1]: 5.75 µg/mL (≈ 12.6 µM)
IC90 [2]: 5.75 µg/mL (≈ 12.6 µM)

SMILES: COc1nc2ccccc2cc1C(c1ccccc1)C1(O)CCNC(Cc2ccccc2)C1 (stereo not drawn) [Compound 399]
IC90 [1]: > 12.5 µg/mL
IC90 [2]: > 12.5 µg/mL

SMILES: COc1nc2ccccc2cc1C(c1ccccc1)C1(O)CCNC(Cc2ccccc2)C1 (stereo not drawn) [Compound 400]
IC90 MSM 607 [1]: >12.47 µg/mL
IC90 STA B29213 [2]: >12.47 µg/mL

SMILES: COc1nc2ccccc2cc1C(c1ccccc1)C1(O)CCNC(Cc2ccccc2)C1 (stereo not drawn) [Compound 401]
IC90 MSM 607 [1]: >12.77 µg/mL
IC90 STA B29213 [2]: >12.77 µg/mL

SMILES: COc1nc2ccccc2cc1C(c1ccccc1)C1(O)CCNC(Cc2ccccc2)C1 (stereo not drawn) [Compound 402]
IC90 MSM 607 [1]: 12.47 µg/mL (≈ 28.4 µM)
IC90 STA B29213 [2]: >12.47 µg/mL

SMILES: COc1nc2ccc(Cl)cc2cc1C(c1ccc(Cl)cc1)C1(O)CCNC(c2ccccc2)C1 (stereo not drawn) [Compound 403]
IC90 MSM 607 [1]: 8.66 µg/mL (≈ 17.6 µM)
IC90 STA B29213 [2]: 9.72 µg/mL (≈ 19.7 µM)

SMILES: COc1nc2ccc(Cl)cc2cc1C(c1ccc(Cl)cc1)C1(O)CCNC(c2ccccc2)C1 (stereo not drawn) [Compound 404]
IC90 MSM 607 [1]: 1.68 µg/mL (≈ 3.4 µM)
IC90 STA B29213 [2]: 2.99 µg/mL (≈ 6.06 µM)

— patent US9617244B2, “Antibacterial quinoline derivatives” (JANSSEN PHARMACEUTICA NV, priority 2012, dated 2017)
